Test system: biotinylated m012 (RNA, aptamer) GGCGAAUUCUUCCGUUAUUGGAGCCAAGUCGCC
Experiment: competitive ELAA, absorbance 405 nm
Conditions: 150 mM NaCl, 5 mM MgCl2; 50 mM HEPES pH 7.4 (wash), 25 °C; biotinylated SPC (6 µM) displaced; immobilised aptamer

binding: yes
SMILES: CCCCCCCCCCCCC/C=C/[C@@H](O)[C@@H](N)COP(=O)([O-])OCC[N+](C)(C)C

— publication PMC6257670 (2010)
